In patent publication US20090186915A1, “Compositions and methods for treatment of glioblastoma, gliosarcoma, NSCLC, and head and neck cancer” (Unibioscreen S. A., priority 2006, published 2009):

What was measured:
PC-3 [1] = test: Apoptosis by Annexin V flow cytometry, PC-3; type: cell-based, human
Description: We used flow cytometry (according to the protocol found in Mijatovic et al. Neoplasia 2006) to determine the percentages of PC-3 and DU-145 positive cells for both Annexin V and propidium iodide and we observed that a maximum of 10% only of PC-3 or DU-145 cells underwent apoptotic processes following a treatment with 10 μM of the compound produced according to example 2 or example 7.
The determination of the percentage of cells undergoing apoptosis was performed using an Annexin V-FITC Apoptosis Detection Kit (Sigma) following the manufacturer's instructions. Each sample was evaluated in triplicate.

PC-3 [2] = test: Lysosomal membrane permeabilization (LMP), PC-3; type: cell-based, human; conditions: 72 hours, 1 μM or 10 μM
Description: It is well known that lysosomes control cell death at several levels. In response to endogenous or exogenous stress (including chemotherapy), lysosomal membrane permeabilization (LMP) can occur, leading to the release of catabolic hydrolases that can mediate caspase-dependent apoptosis, caspase-independent apoptosis-like cell death or even necrosis following high levels of LMP.

GM-CFC = test: HALO hematotoxicity assay, human GM-CFC; type: cell-based; conditions: 7 days culture, iATP
Description: Investigation of the hematotoxic potential of UNBS5162 was undertaken by HemoGenix (Colorado Springs, Colo.). The effects of UNBS5162 on stem and progenitor cell populations from murine and human bone marrow were assessed using HALO (Hematopoietic/Hematotoxicity Assay through Luminescence Output) technology. Stem and hematopoietic progenitor cell populations were isolated from mouse and human bone marrow samples, plated at a concentration of 1.0×10^4 cells/well and cultured for 5 and 7 days, respectively, in the presence of growth factors and increasing concentrations of UNBS5162 ranging from 0.5 nM to 50 μM. The proliferative or growth potential of cell populations was determined from intracellular ATP (iATP) concentrations and a luciferin/luciferase bioluminescence signal detection system. All samples were assayed in eight replicates. The results are presented as estimated inhibitory concentration (IC) values.

Rb, pRb = test: Western blot of Rb and p-Rb, PC-3; type: cell-based, human; conditions: 10 μM, 48 and 72 hours
Description: Cell extracts were prepared by the lysis of subconfluent PC-3 cells directly in boiling lysis buffer (10 mM Tris, pH 7.4, 1 mM Na3O4V, 1% SDS, pH 7.4). Approximately 40 μg of extracted proteins (evaluated by the bicinchoninic acid protein assay; Pierce, Perbio Science, Erembodegem, Belgium) was then loaded onto a denaturing polyacrylamide gel. The proteins submitted to Western blot analyses were detected using primary antibodies provided by: 1) CST Technologies, Bioké, Leiden, The Netherlands: Rb (1:2000) and p-Rb (1:1000); 2) BD Transduction Laboratories, Erembodegem, Belgium: E2F1 (1:400); and 3) AbCam, Cambridge, UK: tubulin (1:3000, used as a loading control). The antibody for LC-3 protein (1:500) was kindly provided by Dr. Yasuko Kondo. Western blot analyses were performed as detailed previously.

CXCL-1 and CXCL-8 = test: ELISA of CXCL1 and CXCL8, OE21 cells; type: cell-based, human; conditions: 5×1 μM
Description: ELISA determination of CXCL1 and CXCL8 (IL-8) protein levels in untreated and 5×1 μM UNBS5162-treated OE21 cells. “5×1 μM” means that tumor cells were treated in vitro for one day with 1 μM UNBS5162 and then the culture medium was replaced by fresh medium containing 1 μM UNBS5162; this procedure of renewal of cell medium containing 1 μM UNBS5162 was repeated for five consecutive days, with determination of chemokine concentration being performed 24 h (+24 h) or 72 h (+72 h) after the 5th (last) treatment of tumor cells with UNBS5162. The concentrations of the two specific chemokines (expressed as pg/mL) were normalized by the cell number determined in each sample. Each sample was assessed in triplicate. The data are presented as means (grey columns)±SEM (thin bars) in FIG. 9.

CCL2, CXCL-I and CXCL-8 = test: ELISA of CCL2, CXCL1 and CXCL8, Hs683 cells; type: cell-based, human; conditions: 1 μM single or 5×1
[3] = system: orthotopic Hs683 xenograft; test: Orthotopic Hs683 xenograft nude mice model, survival; type: in vivo; conditions: Temodal p.o. 40 mg/kg three times a week for three weeks followed by UNBS5162 i.v. 10 mg/kg once a week for three weeks
Description: In order to evaluate UNBS5162-mediated in vivo anti-tumor effect in glioma models, an orthotopis Hs683 model was used that was previously evidenced as expressing pro-angiogenic chemokines at the most high level. […] In line with this, an experiment combining Temodal to UNBS5162 was performed.
Thus, combining pro-autophagic therapy with an inhibitor of pro-angiogenic chemokines might represent a new manner to treat glioblastoma, at least some types that express high levels of pro-angiogenic chemokines.

[4] = system: PC-3 Human Prostate Cancer Cells; test: Affymetrix whole genome microarray, gene targets; conditions: mRNA
Description: We performed a first experiment of evaluation of gene targets by means of Affymetrix whole genome microarray using human PC-3 cancer cells grown in vitro and treated with the compound of the invention (N-{2-[2-(dimethylamino)ethyl]-1,3-dioxo-2,3-dihydro-1H-benzo[de]isoquinolin-5-yl}urea) either one time at 1 μM or 10 μM, or 5 times a week (one time a day during five consecutive days) at 1 μM (Full genome analyses were performed at the VIB MicroArray Facility (UZ Gasthuisberg, Catholic University of Leuven, Belgium) using Affymetrix Human Genome U133 set Plus 2.0 (High Wycombe, United Kingdom).
Full genome-wide analyses were performed at the VIB MicroArray Facility (UZ Gasthuisberg, Catholic University of Leuven, Leuven, Belgium) using the Affymetrix Human Genome U133 set Plus 2.0 (High Wycombe, UK).
In addition to R, an open-source software environment for statistical computing, a set of functions called BioConductor was used for the analysis and comprehension of the genomic data. The quality controls in the Affymetrix microarray experiments were performed with the Simpleaffy package and agreed with Affymetrix guidelines. The background correction, expression quantification and normalization were performed using Robust Multichip Analysis. To select differentially expressed genes between two experimental conditions, probes for which no overlap occurred between intervals in the expression values obtained for each condition were first identified. The fold change between two experimental conditions was computed for each of these probes (without any value overlap) as the ratio between the two nearest unlog expression values observed for the two different conditions (i.e., the ratio closest to 1 between any two values from the two different conditions). Probes for which these ratios were above 2.0 or below 0.50 were then selected. The annotations of the genes finally selected in this way were retrieved from the Affymetrix Web site through the BioConductor package ghgu133plus2.h. […] This software package was then used to rank functional clusters by means of the statistical overrepresentation of individual genes in specific categories relative to all the genes in the same category on the microarray.

[5] = 1 μM once a day for five consecutive days

## CN(C)CCN1C(=O)c2cccc3cc(NC(N)=O)cc(c23)C1=O [UNBS5162, N-{2-[2-(dimethylamino)ethyl]-1,3-dioxo-2,3-dihydro-1H-benzo[de]isoquinolin-5-yl}urea]
PC-3 [1]; 10 μM
  cells undergoing apoptotic processes (Annexin V and propidium iodide positive): ≤ 10%
PC-3 [1]; flow cytometry
  induction of real (early) apoptosis: does not induce real (early) apoptosis
PC-3 [2]
  lysosomal membrane permeabilization (LMP): no LMP
GM-CFC; 168 h
  IC50: 3.74 µM
  IC90: 19.9 µM
GM-CFC
  IC75: 8.12 µM
Rb, pRb
  Rb protein expression: completely abolished Rb protein expression
CXCL-1 and CXCL-8
  CXCL-1 and CXCL-8 protein levels (ELISA): a marked decrease in CXCL-1 and CXCL-8
CCL2, CXCL-I and CXCL-8
  CCL2, CXCL-I and CXCL-8 production (ELISA): a marked UNBS5162-mediated decrease in CCL2, CXCL-I and CXCL-8 production
[3]
  survival period of tumor bearing mice: significantly prolonged the survival period of tumor bearing mice
[4]; [5]
  ALDH1A3 Expression Level: 5 × 1 μM: 3.7
  ASNS Expression Level: 5 × 1 μM: 0.9
  BCAT1 Expression Level: 5 × 1 μM: 0.8
  CBS Expression Level: 5 × 1 μM: 1.0
  CTH Expression Level: 5 × 1 μM: 0.9
  H2BFS Expression Level: 5 × 1 μM: 0.5
  HIST1H2AC Expression Level: 5 × 1 μM: 0.2
  HIST1H2BC Expression Level: 5 × 1 μM: 0.7
  HIST1H2BD Expression Level: 5 × 1 μM: 0.3
  HIST1H2BG Expression Level: 5 × 1 μM: 0.5
  HIST1H2BK Expression Level: 5 × 1 μM: 0.3
  HIST1H3D Expression Level: 5 × 1 μM: 0.6
  HIST1H3H Expression Level: 5 × 1 μM: 0.6
  HIST2H2AA Expression Level: 5 × 1 μM: 0.5
  HIST2H2BE Expression Level: 5 × 1 μM: 0.3
  PHGDH Expression Level: 5 × 1 μM: 1.0
  SARS Expression Level: 5 × 1 μM: 0.9
  SAT Expression Level: 5 × 1 μM: 0.8
[4]; one time at 1 μM
  ALDH1A3 CT versus 1 μM: 0.7
  ASNS CT versus 1 μM: 1.3
  CBS CT versus 1 μM: 1.0
  CTH CT versus 1 μM: 1.1
  H2AFY CT versus 1 μM: 1.7
  HIST1H2AC CT versus 1 μM: 1.0
  HIST1H3D CT versus 1 μM: 0.9
  PHGDH CT versus 1 μM: 1.4
  SARS CT versus 1 μM: 1.0
  SAT CT versus 1 μM: 1.1
[4]; one time at 10 μM
  ALDH1A3 Expression Level: 10 μM: 2.3
  ASNS Expression Level: 10 μM: 3.6
  BCAT1 Expression Level: 10 μM: 2.1
  CBS Expression Level: 10 μM: 2.2
  CTH Expression Level: 10 μM: 2.0
  H2AFY Expression Level: 10 μM: 2.6
  H2BFS Expression Level: 10 μM: 0.5
  HIST1H2AC Expression Level: 10 μM: 0.4
  HIST1H2BC Expression Level: 10 μM: 0.4
  HIST1H2BD Expression Level: 10 μM: 0.3
  HIST1H2BG Expression Level: 10 μM: 0.4
  HIST1H2BK Expression Level: 10 μM: 0.5
  HIST1H3D Expression Level: 10 μM: 0.4
  HIST1H3H Expression Level: 10 μM: 0.3
  HIST2H2AA Expression Level: 10 μM: 0.4
  HIST2H2BE Expression Level: 10 μM: 0.5
  PHGDH Expression Level: 10 μM: 2.4
  SARS Expression Level: 10 μM: 2.6
  SAT Expression Level: 10 μM: 0.5
